Here are results for 19 compounds from patent publication US4122179A, “Acid addition salts of vincamine and apovincamine” (priority 1976, dated 1978).

Where a name gives a salt, the structure may show the parent alone.

One data set concerns vertebral arteria. Nature of the data set: Cerebral vasodilating activity: hematic flow at the vertebral arteria after i.v. administration. The data set is classed as in vivo. Particulars: i.v. (femoral vein), 5 mg/kg of vincamine/apovincamine, anesthetized dog, 4 animals per compound. Here is the method: (§1) For the compounds of the present invention a number of pharmacological and pharmacokinetic tests have been carried out. […] As regards the pharmacological and pharmacodynamic activity, it has been studied on the percent variations of the hematic flow, as recorded at the vertebral arteria in the dog after administration of the tested compounds. As regards the pharmacokinetic tests, the compounds were administered per oral route to the Wistar rat, and the hematic levels at different times from the administration were measured.
The cerebral vasodilating activity was studied in the anestetized dog, by measuring, by means of Statham periarterial electromagnetic flowmeters, the hematic flow at the level of the […] which, in such animal species, constitutes the greatest blood supply to the brain.
The resuls are reported in the TABLE 2 (last column) as the percent variations of the flow measured at the level of the ledt vertebral arteria after the i.v. administration of the several compounds to be tested to groups of 4 animals for each compound. The results also confirm that the compounds of the invention are all endowed with a vasodilating activity at the level of the cerebral circulus, such an action being, for some compounds, much more remarkable than that of vincamine and apovincamine.

A short description of data set [1]: LD50 / acute toxicity, intraperitoneal route. Particulars: i.p.; for Toxicity (Gleason): Gleason class in words, classes not defined. The data set is classed as in vivo.
A further data set in a line: Solubility. The data set is classed as physicochemical. Particulars: qualitative; for solubility in alcohol: alcohol (ethyl alcohol).
Data set [2] in a line: Hematic levels at different times after oral administration (absorption). In kind it is in vivo, Wistar rat. Particulars: 100 mg/kg expressed as vincamine/apovincamine, 5% carboxymethyl cellulose suspension. Here is the method:
as §1
For the evaluation of the absorption, all the compounds have been orally administered at the dosage of 100 mg/kg, expressed as vincamine and apovincamine, in form of a suspension in a 5% carboxymethyl cellulose solution.
The absorption was determined by evaulating the hematic levels at the following times (minutes) : 0, 30, 120, 240, 480, 10 hours and 12 hours, in order also to assess the time from the administration (max conc.time) the maximum absorption occurred.
The vincamine and apovincamine concentrations were assessed by chromatographic method.
For the evaluation of the prolonged action of the salts and of the adducts of vincamine and apovincamine the following criterium was adopted; as derivatives having a long-acting effect, there are considered those which, 120 minutes after the administration, show hematic levels higher than those obtained with vincamine and apovincamine.

As usually defined, the LD50 is the dose expected to kill half of the subjects tested. Higher therefore signals a less toxic substance. Turning to `CC[C@]12CCCN3CCc4c(n(c5ccccc45)[C@@](O)(C(=O)OC)C1)[C@@H]32` [Example 2.a, Vincamine 2,4-dihydroxy-benzoate], the “% increase (percent variation of hematic flow, left vertebral arteria)” value with vertebral arteria (5 mg/kg) amounted to 24.8%. Further, in data set [1], the LD50 worked out at 750 mg/kg and the “Toxicity (Gleason)” value is given as “modest”. Also, the solubility in alcohol entry in “Solubility” is recorded as “soluble”. The compound further had a Max. conc. time in data set [2] (100 mg/kg) of 120 min.

On to `CC[C@@]12C=C(C(=O)OC)n3c4c(c5ccccc53)CCN(CCC1)[C@H]42` [Example 2.b, Apovineamine 2,4-dihydroxy-benzoate], for which the “% increase (percent variation of hematic flow, left vertebral arteria)” value in the data set with vertebral arteria (5 mg/kg) stood at 29.0%. Also, in data set [1], the LD50 stood at 650 mg/kg and the “Toxicity (Gleason)” value was “modest”. For the same compound, in “Solubility”, the solubility in alcohol entry was “soluble”. Further, the “solubility in the common (organic) solvents” value in the data set “Solubility” (common organic solvents) is “not”. This compound yielded a Max. conc. time in data set [2] (100 mg/kg) of 120 min.

In the case of `CC[C@]12CCCN3CCc4c(n(c5ccccc45)[C@@](O)(C(=O)OC)C1)[C@@H]32` [Example 3.a, Vincamine glucose-1-phosphate], the “% increase (percent variation of hematic flow, left vertebral arteria)” value in the data set on vertebral arteria (5 mg/kg) is listed as 29.0%. In data set [1], the LD50 is on record as 1150 mg/kg and the “Toxicity (Gleason)” value is on record as “light”. Moreover, the solubility in water entry in “Solubility” is “partially soluble”. The Max. conc. time in data set [2] (100 mg/kg) came out at 240 min.

Regarding `CC[C@@]12C=C(C(=O)OC)n3c4c(c5ccccc53)CCN(CCC1)[C@H]42` [Example 3.b, Apovincamine glucose-1-phosphate], the “% increase (percent variation of hematic flow, left vertebral arteria)” value in the data set with vertebral arteria (5 mg/kg) was 26.4%. In data set [1], the 50% lethal dose (LD50) was 850 mg/kg and the “Toxicity (Gleason)” value was “modest”. Moreover, the solubility in water entry in “Solubility” is reported as “soluble”. This compound displayed a Max. conc. time in data set [2] (100 mg/kg) of 120 min.

On to `CC[C@]12CCCN3CCc4c(n(c5ccccc45)[C@@](O)(C(=O)OC)C1)[C@@H]32` [Example 4.a, Vincamine glucose-1-phosphate, acid salt], for which, in the data set on vertebral arteria (5 mg/kg), the “% increase (percent variation of hematic flow, left vertebral arteria)” value is 26.6%. For the same compound, in data set [1], the 50% lethal dose (LD50) is given as 700 mg/kg and the “Toxicity (Gleason)” value is reported as “modest”. Besides, the solubility in water entry in “Solubility” is given as “soluble”. The compound further yielded a Max. conc. time in data set [2] (100 mg/kg) of 240 min.

Turning to `CC[C@@]12C=C(C(=O)OC)n3c4c(c5ccccc53)CCN(CCC1)[C@H]42` [Example 4.b, Apovincamine glucose-1-phosphate, acid salt], in the data set with vertebral arteria (5 mg/kg), the “% increase (percent variation of hematic flow, left vertebral arteria)” value amounted to 26.1%. Besides, in data set [1], the LD50 was 600 mg/kg and the “Toxicity (Gleason)” value is on record as “modest”. Also, the solubility in water result in the data set “Solubility” is “soluble”. For the same compound, the Max. conc. time in data set [2] (100 mg/kg) turned out to be 240 min.

Turning to `CC[C@]12CCCN3CCc4c(n(c5ccccc45)[C@@](O)(C(=O)OC)C1)[C@@H]32` [Example 5.a, Vincamine 2,6-dihydroxybenzoate], in the data set with vertebral arteria (5 mg/kg), the “% increase (percent variation of hematic flow, left vertebral arteria)” value is recorded as 23.6%. In addition, in data set [1], the LD50 amounted to 550 mg/kg and the “Toxicity (Gleason)” value was “modest”. Also, in “Solubility”, the solubility in alcohol entry is reported as “insoluble” and the solubility in water entry is “insoluble”. Further, the Max. conc. time in data set [2] (100 mg/kg) is 120 min.

For the compound `CC[C@@]12C=C(C(=O)OC)n3c4c(c5ccccc53)CCN(CCC1)[C@H]42` [Example 5.b, Apovincamine 2,6-dihydroxybenzoate], the “% increase (percent variation of hematic flow, left vertebral arteria)” value in the data set with vertebral arteria (5 mg/kg) amounted to 25.4%. In data set [1], the median lethal dose (LD50) turned out to be 750 mg/kg and the “Toxicity (Gleason)” value is “modest”. In “Solubility”, the solubility in alcohol result is on record as “poorly soluble” and the solubility in water result was “insoluble”. Moreover, in data set [2] (100 mg/kg), the Max. conc. time was found to be 120 min.

Regarding `CC[C@]12CCCN3CCc4c(n(c5ccccc45)[C@@](O)(C(=O)OC)C1)[C@@H]32` [Example 6.a, Vincamine 2,5-dihydroxybenzoate], in the data set on vertebral arteria (5 mg/kg), the “% increase (percent variation of hematic flow, left vertebral arteria)” value is given as 28.0%. Besides, in data set [1], the LD50 is 800 mg/kg and the “Toxicity (Gleason)” value is “modest”. For the same compound, in the data set “Solubility”, the solubility in alcohol result is reported as “insoluble” and the solubility in water result is given as “insoluble”. For the same compound, the Max. conc. time in data set [2] (100 mg/kg) was 120 min.

Regarding `CC[C@@]12C=C(C(=O)OC)n3c4c(c5ccccc53)CCN(CCC1)[C@H]42` [Example 6.b, Apovincamine 2,5-dihydroxybenzoate], in the data set with vertebral arteria (5 mg/kg), the “% increase (percent variation of hematic flow, left vertebral arteria)” value was found to be 30.9%. In addition, in data set [1], the 50% lethal dose (LD50) worked out at 750 mg/kg and the “Toxicity (Gleason)” value is recorded as “modest”. In “Solubility”, the solubility in alcohol entry is recorded as “insoluble” and the solubility in water result is “insoluble”. The same compound came in with a Max. conc. time in data set [2] (100 mg/kg) of 240 min.

In the case of `CC[C@]12CCCN3CCc4c(n(c5ccccc45)[C@@](O)(C(=O)OC)C1)[C@@H]32` [Example 7.a, Vincamine 3,5-dihydroxybenzoate], the “% increase (percent variation of hematic flow, left vertebral arteria)” value in the data set with vertebral arteria (5 mg/kg) was 26.3%. In addition, in data set [1], the 50% lethal dose (LD50) was 850 mg/kg and the “Toxicity (Gleason)” value is listed as “modest”. Moreover, in the data set “Solubility”, the solubility in alcohol result was “insoluble” and the solubility in water entry is reported as “insoluble”. Moreover, the Max. conc. time in data set [2] (100 mg/kg) came to 240 min.

`CC[C@@]12C=C(C(=O)OC)n3c4c(c5ccccc53)CCN(CCC1)[C@H]42` [Example 7.b, Apovincamine 3,5-dihydroxybenzoate]: in the data set with vertebral arteria (5 mg/kg), the “% increase (percent variation of hematic flow, left vertebral arteria)” value turned out to be 26.0%. In data set [1], the LD50 is 750 mg/kg and the “Toxicity (Gleason)” value is given as “modest”. In the data set “Solubility”, the solubility in alcohol result is “soluble” and the solubility in water entry is “insoluble”. The Max. conc. time in data set [2] (100 mg/kg) worked out at 240 min.

With `CC[C@]12CCCN3CCc4c(n(c5ccccc45)[C@@](O)(C(=O)OC)C1)[C@@H]32` [Example 8.a, Vincamine p-toluensulfonate], the “% increase (percent variation of hematic flow, left vertebral arteria)” value in the data set on vertebral arteria (5 mg/kg) is 25.1%. Besides, in data set [1], the 50% lethal dose (LD50) was 1250 mg/kg and the “Toxicity (Gleason)” value is listed as “light”. For the same compound, in “Solubility”, the solubility in alcohol result is listed as “soluble” and the solubility in water entry was “soluble”. The Max. conc. time in data set [2] (100 mg/kg) was found to be 480 min.

On to `CC[C@@]12C=C(C(=O)OC)n3c4c(c5ccccc53)CCN(CCC1)[C@H]42` [Example 8.b, Apovincamine p-toluensulfonate], for which the “% increase (percent variation of hematic flow, left vertebral arteria)” value with vertebral arteria (5 mg/kg) is recorded as 29.0%. Moreover, in data set [1], the LD50 is 900 mg/kg and the “Toxicity (Gleason)” value is given as “modest”. In the data set “Solubility”, the solubility in alcohol entry was “soluble” and the solubility in water entry is reported as “insoluble”. Further, the Max. conc. time in data set [2] (100 mg/kg) was determined as 480 min.

Turning to `CC[C@]12CCCN3CCc4c(n(c5ccccc45)[C@@](O)(C(=O)OC)C1)[C@@H]32` [Example 9.a, Vincamine clofibrate (2-(p-chlorophenoxy)-2-methylpropionate)], in the data set with vertebral arteria (5 mg/kg), the “% increase (percent variation of hematic flow, left vertebral arteria)” value is listed as 22.1%. In data set [1], the LD50 is recorded as 900 mg/kg and the “Toxicity (Gleason)” value is recorded as “modest”. Moreover, in “Solubility”, the solubility in alcohol result was “soluble” and the solubility in water result is “insoluble”. Also, the Max. conc. time in data set [2] (100 mg/kg) worked out at 480 min.

With `CC[C@@]12C=C(C(=O)OC)n3c4c(c5ccccc53)CCN(CCC1)[C@H]42` [Example 9.b, Apovincamine clofibrate], in the data set with vertebral arteria (5 mg/kg), the “% increase (percent variation of hematic flow, left vertebral arteria)” value was found to be 28.3%. Further, in data set [1], the 50% lethal dose (LD50) was 800 mg/kg and the “Toxicity (Gleason)” value is “light”. Also, in “Solubility”, the solubility in alcohol entry was “soluble” and the solubility in water entry was “insoluble”. In addition, in data set [2] (100 mg/kg), the Max. conc. time was determined as 480 min.

As to `CC[C@@]12C=C(C(=O)OC)n3c4c(c5ccccc53)CCN(CCC1)[C@H]42` [Example 20.b, Apovincamine theophylline-7-acetate], the “% increase (percent variation of hematic flow, left vertebral arteria)” value with vertebral arteria (5 mg/kg) is 27.2%. In the data set “Solubility”, the solubility in water entry is recorded as “soluble”. The compound further returned a Max. conc. time in data set [2] (100 mg/kg) of 120 min.

Turning to `CC[C@@]12C=C(C(=O)OC)n3c4c(c5ccccc53)CCN(CCC1)[C@H]42` [Example 25.b, Apovincamine (D,L)-mandelate], the “% increase (percent variation of hematic flow, left vertebral arteria)” value in the data set with vertebral arteria (5 mg/kg) amounted to 34.5%. Further, in “Solubility”, the solubility in alcohol result is reported as “soluble” and the solubility in water entry is listed as “insoluble”. The compound also gave a Max. conc. time in data set [2] (100 mg/kg) of 120 min.

Turning to Apovincamine tannate [Example 24.b], the “% increase (percent variation of hematic flow, left vertebral arteria)” value in the data set with vertebral arteria was 29.8%. Moreover, the solubility in water result in the data set “Solubility” was “insoluble”. This compound registered a Max. conc. time in data set [2] of 480 min.
